The NIST ThermoML archive (doi:10.1021/je900468u)

Experiments:
[1] = refractive index (Na D-line) (dimensionless); xn = mol fraction of the nth substance listed; conditions: 101 kPa, Liquid, Standard Abbe refractometry
[2] = xn = mol fraction of the nth substance listed; conditions: 101 kPa, Liquid; for speed of sound: Pulse-echo method

c1ccccc1 [benzene] + C1CCCCC1
x2 = 0
Conditions	mass density, [2] [kg/m3]	refractive index, [1]	speed of sound, [2] [m/s]
283.15 K	889.5	1.50765	1371
298.15 K	873.9	1.49774	1299

c1ccccc1 [benzene] + C1CCCCCCC1
298.15 K, x2 = 0
Conditions	mass density [kg/m3]	refractive index	speed of sound [m/s]
[1]	–	1.49774	–
[2]	873.6	–	1299

c1ccccc1 [benzene] + CC1CCCCC1
x2 = 0
Conditions	mass density, [2] [kg/m3]	refractive index, [1]	speed of sound, [2] [m/s]
283.15 K	889.5	1.50765	1371
298.15 K	873.6	1.49774	1299

C1CCCCC1 [cyclohexane] + CCc1ccccc1
x1 = 1
Conditions	mass density, [2] [kg/m3]	refractive index, [1]	speed of sound, [2] [m/s]
283.15 K	787.8	1.43193	1329
298.15 K	773.9	1.4236	1255

C1CCCCC1 [cyclohexane] + Cc1ccccc1
Conditions	mass density, [2] [kg/m3]	refractive index, [1]	speed of sound, [2] [m/s]
283.15 K, x1 = 0.0484	871	1.4988	1365
283.15 K, x1 = 0.099	865.8	1.49476	1360
283.15 K, x1 = 0.1997	855.8	1.48684	1351
283.15 K, x1 = 0.2973	846.1	1.47919	1344
283.15 K, x1 = 0.3975	836.6	1.47167	1337
283.15 K, x1 = 0.4999	827.3	1.46416	1331
283.15 K, x1 = 0.5881	819.6	1.45803	1328
283.15 K, x1 = 0.699	810.3	1.45054	1325
283.15 K, x1 = 0.7985	802.4	1.44407	1324
283.15 K, x1 = 0.8961	795.1	1.43794	1325
283.15 K, x1 = 0.9497	791.3	1.43489	1327
283.15 K, x1 = 1	–	–	1329
298.15 K, x1 = 0.0484	857.2	1.49021	1300
298.15 K, x1 = 0.099	852	1.48614	1294
298.15 K, x1 = 0.1997	842	1.47829	1285
298.15 K, x1 = 0.2973	832.3	1.47073	1276
298.15 K, x1 = 0.3975	822.8	1.4632	1269
298.15 K, x1 = 0.4999	813.4	1.4558	1263
298.15 K, x1 = 0.5881	805.7	1.44964	1258
298.15 K, x1 = 0.699	796.4	1.44216	1254
298.15 K, x1 = 0.7985	788.4	1.4358	1252
298.15 K, x1 = 0.8961	781.1	1.42971	1252
298.15 K, x1 = 0.9497	777.4	1.42663	1253
298.15 K, x1 = 1	773.9	1.4236	1255

C1CCCCC1 [cyclohexane] + c1ccccc1
Conditions	mass density, [2] [kg/m3]	refractive index, [1]	speed of sound, [2] [m/s]
283.15 K, x1 = 0.047	882.7	1.50275	1364
283.15 K, x1 = 0.0984	875.6	1.49741	1358
283.15 K, x1 = 0.1978	862.4	1.48772	1346
283.15 K, x1 = 0.2968	850.4	1.47886	1338
283.15 K, x1 = 0.3929	839.4	1.47071	1331
283.15 K, x1 = 0.4996	828.3	1.46247	1326
283.15 K, x1 = 0.6003	818.8	1.45532	1323
283.15 K, x1 = 0.7022	809.9	1.44865	1322
283.15 K, x1 = 0.7963	802.3	1.44324	1322
283.15 K, x1 = 0.8954	794.9	1.43781	1325
283.15 K, x1 = 0.9501	791.2	1.43453	1327
283.15 K, x1 = 1	787.8	1.43193	1329
298.15 K, x1 = 0.047	867.1	1.49298	1293
298.15 K, x1 = 0.0984	859.9	1.48771	1286
298.15 K, x1 = 0.1978	847	1.47808	1275
298.15 K, x1 = 0.2968	835.2	1.46965	1266
298.15 K, x1 = 0.3929	824.5	1.46157	1259
298.15 K, x1 = 0.4996	813.6	1.45354	1254
298.15 K, x1 = 0.6003	804.2	1.44654	1251
298.15 K, x1 = 0.7022	795.5	1.44001	1249
298.15 K, x1 = 0.7963	788	1.43431	1249
298.15 K, x1 = 0.8954	780.8	1.42891	1250
298.15 K, x1 = 0.9501	777.2	1.42611	1252
298.15 K, x1 = 1	773.9	1.4236	1255

C1CCCCCCC1 [cyclooctane] + CCc1ccccc1
298.15 K
Conditions	mass density, [2] [kg/m3]	refractive index, [1]	speed of sound, [2] [m/s]
x1 = 0.0465	860.4	1.49082	1321
x1 = 0.0962	858.3	1.48858	1322
x1 = 0.1961	854.1	1.48405	1327
x1 = 0.2944	850.3	1.47983	1332
x1 = 0.3975	846.6	1.47562	1339
x1 = 0.4959	843.4	1.47185	1346
x1 = 0.5935	840.4	1.46828	1353
x1 = 0.6929	837.6	1.46489	1361
x1 = 0.7954	835.2	1.4616	1370
x1 = 0.8899	833.2	1.45885	1379
x1 = 0.9497	832.1	1.45726	1385
x1 = 1	831.5	1.45598	1391

C1CCCCCCC1 [cyclooctane] + Cc1ccccc1
298.15 K
Conditions	mass density, [2] [kg/m3]	refractive index, [1]	speed of sound, [2] [m/s]
x1 = 0.0488	859.8	1.49121	1307
x1 = 0.1031	857	1.48824	1309
x1 = 0.2021	852.5	1.48313	1315
x1 = 0.2973	848.5	1.47861	1321
x1 = 0.4014	844.7	1.47411	1329
x1 = 0.5	841.5	1.47026	1337
x1 = 0.6005	838.7	1.46667	1347
x1 = 0.6976	836.4	1.46358	1356
x1 = 0.7981	834.4	1.46073	1367
x1 = 0.9007	832.8	1.45814	1378
x1 = 0.9494	832.1	1.45705	1384
x1 = 1	831.5	1.45598	1391

C1CCCCCCC1 [cyclooctane] + c1ccccc1
298.15 K
Conditions	mass density, [2] [kg/m3]	refractive index, [1]	speed of sound, [2] [m/s]
x1 = 0.0522	869.3	1.49384	1300
x1 = 0.102	865.4	1.49019	1301
x1 = 0.203	858.5	1.48375	1306
x1 = 0.3029	852.8	1.47827	1313
x1 = 0.4033	847.9	1.47346	1322
x1 = 0.5002	843.9	1.46955	1331
x1 = 0.5985	840.5	1.46607	1342
x1 = 0.7025	837.5	1.46284	1354
x1 = 0.7983	835.2	1.4603	1365
x1 = 0.8946	833.3	1.45808	1377
x1 = 0.9504	832.4	1.45694	1384
x1 = 1	831.5	1.45598	1391

CCc1ccccc1 [ethylbenzene] + C1CCCCC1
Conditions	mass density, [2] [kg/m3]	refractive index, [1]	speed of sound, [2] [m/s]
283.15 K, x2 = 0	875.7	1.50129	1382
283.15 K, x2 = 0.0476	871.4	1.49802	1377
283.15 K, x2 = 0.0982	866.9	1.49455	1372
283.15 K, x2 = 0.1983	857.9	1.48762	1364
283.15 K, x2 = 0.2982	848.9	1.48066	1356
283.15 K, x2 = 0.3973	840.1	1.47373	1349
283.15 K, x2 = 0.5016	830.7	1.46641	1342
283.15 K, x2 = 0.6008	821.8	1.45942	1337
283.15 K, x2 = 0.6995	813.2	1.45257	1332
283.15 K, x2 = 0.7998	804.4	1.44558	1329
283.15 K, x2 = 0.8967	796.3	1.43898	1328
283.15 K, x2 = 0.9451	792.3	1.43569	1328
298.15 K, x2 = 0	862.5	1.49304	1319
298.15 K, x2 = 0.0476	858.2	1.48992	1314
298.15 K, x2 = 0.0982	853.7	1.48645	1309
298.15 K, x2 = 0.1983	844.7	1.47947	1300
298.15 K, x2 = 0.2982	835.6	1.47245	1291
298.15 K, x2 = 0.3973	826.7	1.46552	1283
298.15 K, x2 = 0.5016	817.2	1.45815	1275
298.15 K, x2 = 0.6008	808.3	1.45116	1268
298.15 K, x2 = 0.6995	799.5	1.44433	1263
298.15 K, x2 = 0.7998	790.7	1.43731	1258
298.15 K, x2 = 0.8967	782.4	1.43062	1255
298.15 K, x2 = 0.9451	778.4	1.42735	1254

CCc1ccccc1 [ethylbenzene] + C1CCCCCCC1
298.15 K, x2 = 0
Conditions	mass density [kg/m3]	refractive index	speed of sound [m/s]
[1]	–	1.49304	–
[2]	862.5	–	1319

CCc1ccccc1 [ethylbenzene] + CC1CCCCC1
x2 = 0
Conditions	mass density, [2] [kg/m3]	refractive index, [1]	speed of sound, [2] [m/s]
283.15 K	875.7	1.50129	1382
298.15 K	862.5	1.49304	1319

CC1CCCCC1 [methylcyclohexane] + CCc1ccccc1
Conditions	mass density, [2] [kg/m3]	refractive index, [1]	speed of sound, [2] [m/s]
283.15 K, x1 = 0.0494	870.3	1.49728	1376
283.15 K, x1 = 0.0975	865.2	1.49353	1369
283.15 K, x1 = 0.1983	854.6	1.4855	1356
283.15 K, x1 = 0.2981	844.4	1.47786	1345
283.15 K, x1 = 0.4008	834.1	1.47018	1333
283.15 K, x1 = 0.5005	824.2	1.46281	1323
283.15 K, x1 = 0.6001	814.6	1.45566	1313
283.15 K, x1 = 0.7006	805.2	1.44856	1304
283.15 K, x1 = 0.7952	796.4	1.44194	1297
283.15 K, x1 = 0.8949	787.3	1.43542	1289
283.15 K, x1 = 0.9495	782.4	1.43163	1285
283.15 K, x1 = 1	777.9	1.42833	1281
298.15 K, x1 = 0.0494	857.2	1.48923	1312
298.15 K, x1 = 0.0975	852.1	1.48542	1305
298.15 K, x1 = 0.1983	841.5	1.47754	1292
298.15 K, x1 = 0.2981	831.2	1.46988	1280
298.15 K, x1 = 0.4008	820.9	1.46219	1268
298.15 K, x1 = 0.5005	811	1.45484	1258
298.15 K, x1 = 0.6001	801.4	1.44771	1247
298.15 K, x1 = 0.7006	791.9	1.44068	1236
298.15 K, x1 = 0.7952	783.1	1.43414	1230
298.15 K, x1 = 0.8949	774.2	1.42751	1222
298.15 K, x1 = 0.9495	769.3	1.4239	1218
298.15 K, x1 = 1	765.1	1.42062	1215
